Patent US20260193602A1, “CULTURE MEDIUM COMPOSITION” (AJINOMOTO CO., INC., priority 2023, published 2026)

What was measured:
[1] = system: HEK293 (Viral Production Cells 2.0) producing AAV8; assay: Production of AAV in HEK293 in suspension culture system (AAV8 genome titer by real-time PCR, viral particles by ELISA, full capsid ratio); assay type: cell-based, human
[2] = system: HEK293 2.sus producing Human adenovirus 32; settings: Example 6; CDM4HEK293 with or without β-alanine; MOI 0.1
Description: The entire volume is placed in a 50 ml tube, 29 mL of glutamine-containing 293 SFM II is added thereto and the cells are suspended. 5 mL of the cell suspension is placed in a Petri dish and culturing with shaking (50 rpm) is performed in a CO2 incubator (temperature setting: 37° C., CO2 concentration: 5%, model: MCO-170AICUV-PJ, Panasonic Healthcare Co., Ltd.) for 2-3 days. • (4) After culturing, the culture solution is recovered and transferred to a 15 mL centrifuge tube. • (5) Centrifugation is performed for 5 min (1000 rpm, 190×g, 24° C.) and the supernatant is removed. • (6) 1 ML of glutamine-containing 293 SFM II is added to the 15 mL centrifuge tube and the cells are resuspended. The cell number is measured using a hemocytometer and glutamine-containing 293 SFM II is added to 3×10^5 cells/mL. […] The cell number is measured using a hemocytometer and the culture solution is added to 3×10^5 cells/mL. […]

Row | Compound | AAV8 genome titer (relative) ([1]; Example 4, spermidine trihydrochloride final concentration 30 μM or 100 μM, FIG. 6) | full capsid ratio (relative) ([1]; Example 4, spermidine trihydrochloride final concentration 30 μM or 100 μM, FIG. 7) | AAV8 genome titer (relative) ([1]; Example 5, spermidine trihydrochloride 200 μM alone, FIG. 8) | adenovirus titer [2] | AAV8 genome titer (relative) ([1]; Example 1, β-alanine final concentration 100 μM, vs medium without β-alanine = 100%, FIG. 1) | full capsid ratio (relative) ([1]; Example 1, β-alanine final concentration 100 μM, vs medium without β-alanine = 100%, FIG. 2) | AAV8 genome titer (relative) ([1]; Example 2, β-alanine final concentration 100 μM, FIG. 3) | AAV8 genome titer (relative) ([1]; Example 2, β-alanine final concentration 300 μM, FIG. 3) | virus count (capsid count (relative)) ([1]; Example 3, β-alanine final concentration 300 μM, FIG. 4) | full capsid ratio (relative) ([1]; Example 3, β-alanine final concentration 300 μM, FIG. 5) | AAV8 genome titer (relative) ([1]; Example 5, β-alanine 300 μM alone, FIG. 8)
1 | Cl.Cl.Cl.NCCCCNCCCN [spermidine trihydrochloride] | improvements | improvements | improved | – | – | – | – | – | – | – | –
2 | NCCC(=O)O [β-alanine] | – | – | – | Improvement | improvements | improvements | improvement | improvement | increase | improvement | improved
